Laboratory results reported in patent publication US20230085307A1, “PYRIDAZINONE COMPOUND AND HERBICIDE” (NISSAN CHEMICAL CORPORATION, priority 2019, published 2023).

Columns and labels:
southern crabgrass [1] = assay: Test Example 4: herbicidal effect by soil treatment (Table 19, symbol F); type: in vivo, southern crabgrass (Digitaria ciliaris); conditions: amount of applied herbicide 320 g/ha
Procedure, shortened: (§1)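 Seeds were sown in sterilized diluvial soil and covered with about 1.5 cm of soil. An emulsion formulation diluted with water to a predetermined herbicide amount was sprayed evenly onto the soil surface. Plants grew in a greenhouse at 25° C. to 30° C., and the effect was scored three weeks after application using criteria from an earlier test.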

lambsquarters [2] = assay: Test Example 4: herbicidal effect by soil treatment (Table 19, symbol O); type: in vivo, lambsquarters (Chenopodium album); conditions: amount of applied herbicide 320 g/ha
Procedure, shortened: as §1

rice flat sedge = assay: Test Example 3: herbicidal effect by foliage application, Wagner pot (Table 18, symbol E); type: in vivo, rice flat sedge (Cyperus iria); conditions: 320 g/ha
Procedure, shortened: (§2)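 Plants were sown in alluvial soil held under 0.1–0.5 cm standing water and grown 14 days in a greenhouse at 25–30 °C. An emulsifiable formulation, water-diluted to the set dose, was then sprayed onto the foliage, and effects were scored three weeks later using previously defined criteria.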

persian speedwell [3] = assay: Test Example 4: herbicidal effect by soil treatment (Table 19, symbol R); type: in vivo, Persian speedwell (Veronica persica); conditions: amount of applied herbicide 320 g/ha
Procedure, shortened: as §1

Chinese sprangletop = assay: Test Example 3: herbicidal effect by foliage application, Wagner pot (Table 18, symbol D); type: in vivo, chinese sprangletop (Leptochloa chinensis); conditions: 320 g/ha
Procedure, shortened: as §2

Italian ryegrass [4] = assay: Test Example 5: herbicidal effect by foliage application, plastic box (Table 20, symbol K); type: in vivo, Italian ryegrass (Lolium multiflorum); conditions: 320 g/ha, foliage application after 14-day growth, evaluated three weeks after application
Procedure, shortened: (§3)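 Plants sown in sterilized diluvial soil and grown 14 days in a greenhouse at 25° C to 30° C, then sprayed on the foliage with the compound's emulsion diluted in water to a predetermined herbicide amount. Injury to weeds and crops scored three weeks after application on a visual rating scale.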

Italian ryegrass [5] = assay: Test Example 4: herbicidal effect by soil treatment (Table 19, symbol K); type: in vivo, Italian ryegrass (Lolium multiflorum); conditions: amount of applied herbicide 320 g/ha
Procedure, shortened: as §1

blackgrass [6] = assay: Test Example 5: herbicidal effect by foliage application, plastic box (Table 20, symbol J); type: in vivo, blackgrass (Alopecurus myosuroides); conditions: 320 g/ha, foliage application after 14-day growth, evaluated three weeks after application
Procedure, shortened: as §3

redroot pigweed [7] = assay: Test Example 5: herbicidal effect by foliage application, plastic box (Table 20, symbol N); type: in vivo, redroot pigweed (Amaranthus retroflexus); conditions: 320 g/ha, foliage application after 14-day growth, evaluated three weeks after application
Procedure, shortened: as §3

chickweed [8] = assay: Test Example 5: herbicidal effect by foliage application, plastic box (Table 20, symbol P); type: in vivo, common chickweed (Stellaria media); conditions: 320 g/ha, foliage application after 14-day growth, evaluated three weeks after application
Procedure, shortened: as §3

chickweed [9] = assay: Test Example 4: herbicidal effect by soil treatment (Table 19, symbol P); type: in vivo, common chickweed (Stellaria media); conditions: amount of applied herbicide 320 g/ha
Procedure, shortened: as §1

southern crabgrass [10] = assay: Test Example 5: herbicidal effect by foliage application, plastic box (Table 20, symbol F); type: in vivo, southern crabgrass (Digitaria ciliaris); conditions: 320 g/ha, foliage application after 14-day growth, evaluated three weeks after application
Procedure, shortened: as §3

blackgrass [11] = assay: Test Example 4: herbicidal effect by soil treatment (Table 19, symbol J); type: in vivo, blackgrass (Alopecurus myosuroides); conditions: amount of applied herbicide 320 g/ha
Procedure, shortened: as §1

windgrass [12] = assay: Test Example 5: herbicidal effect by foliage application, plastic box (Table 20, symbol L); type: in vivo, windgrass (Apera spica-venti); conditions: 320 g/ha, foliage application after 14-day growth, evaluated three weeks after application
Procedure, shortened: as §3

wild oat [13] = assay: Test Example 4: herbicidal effect by soil treatment (Table 19, symbol I); type: in vivo, wild oat (Avena fatua); conditions: amount of applied herbicide 320 g/ha
Procedure, shortened: as §1

barnyard grass [14] = assay: Test Example 4: herbicidal effect by soil treatment (Table 19, symbol H); type: in vivo, barnyard grass (Echinochloa crus-galli); conditions: amount of applied herbicide 320 g/ha
Procedure, shortened: as §1

wild oat [15] = assay: Test Example 5: herbicidal effect by foliage application, plastic box (Table 20, symbol I); type: in vivo, wild oat (Avena fatua); conditions: 320 g/ha, foliage application after 14-day growth, evaluated three weeks after application
Procedure, shortened: as §3

windgrass [16] = assay: Test Example 4: herbicidal effect by soil treatment (Table 19, symbol L); type: in vivo, windgrass (Apera spica-venti); conditions: amount of applied herbicide 320 g/ha
Procedure, shortened: as §1

barnyard grass [17] = assay: Test Example 5: herbicidal effect by foliage application, plastic box (Table 20, symbol H); type: in vivo, barnyard grass (Echinochloa crus-galli); conditions: 320 g/ha, foliage application after 14-day growth, evaluated three weeks after application
Procedure, shortened: as §3

barnyard grass [18] = assay: Test Example 3: herbicidal effect by foliage application, Wagner pot (Table 18, symbol H); type: in vivo, barnyard grass (Echinochloa crus-galli); conditions: 320 g/ha
Procedure, shortened: as §2

velvetleaf [19] = assay: Test Example 4: herbicidal effect by soil treatment (Table 19, symbol M); type: in vivo, velvetleaf (Abutilon theophrasti); conditions: amount of applied herbicide 320 g/ha
Procedure, shortened: as §1

velvetleaf [20] = assay: Test Example 5: herbicidal effect by foliage application, plastic box (Table 20, symbol M); type: in vivo, velvetleaf (Abutilon theophrasti); conditions: 320 g/ha, foliage application after 14-day growth, evaluated three weeks after application
Procedure, shortened: as §3

persian speedwell [21] = assay: Test Example 5: herbicidal effect by foliage application, plastic box (Table 20, symbol R); type: in vivo, Persian speedwell (Veronica persica); conditions: 320 g/ha, foliage application after 14-day growth, evaluated three weeks after application
Procedure, shortened: as §3

lambsquarters [22] = assay: Test Example 5: herbicidal effect by foliage application, plastic box (Table 20, symbol O); type: in vivo, lambsquarters (Chenopodium album); conditions: 320 g/ha, foliage application after 14-day growth, evaluated three weeks after application
Procedure, shortened: as §3

redroot pigweed [23] = assay: Test Example 4: herbicidal effect by soil treatment (Table 19, symbol N); type: in vivo, redroot pigweed (Amaranthus retroflexus); conditions: amount of applied herbicide 320 g/ha
Procedure, shortened: as §1

green foxtail [24] = assay: Test Example 4: herbicidal effect by soil treatment (Table 19, symbol G); type: in vivo, green foxtail (Setaria viridis); conditions: amount of applied herbicide 320 g/ha
Procedure, shortened: as §1

green foxtail [25] = assay: Test Example 5: herbicidal effect by foliage application, plastic box (Table 20, symbol G); type: in vivo, green foxtail (Setaria viridis); conditions: 320 g/ha, foliage application after 14-day growth, evaluated three weeks after application
Procedure, shortened: as §3

Row | Compound | Herbicidal effect by soil treatment, F: southern crabgrass (southern crabgrass [1]) | Herbicidal effect by soil treatment, O: lambsquarters (lambsquarters [2]) | herbicidal effect on rice flat sedge (E) (rice flat sedge) | Herbicidal effect by soil treatment, R: persian speedwell (persian speedwell [3]) | herbicidal effect on Chinese sprangletop (D) (Chinese sprangletop) | herbicidal effect on K: Italian ryegrass (evaluation grade 0-5) (Italian ryegrass [4]) | Herbicidal effect by soil treatment, K: Italian ryegrass (Italian ryegrass [5]) | herbicidal effect on J: blackgrass (evaluation grade 0-5) (blackgrass [6]) | herbicidal effect on N: redroot pigweed (evaluation grade 0-5) (redroot pigweed [7]) | herbicidal effect on P: chickweed (evaluation grade 0-5) (chickweed [8]) | Herbicidal effect by soil treatment, P: chickweed (chickweed [9]) | herbicidal effect on F: southern crabgrass (evaluation grade 0-5) (southern crabgrass [10]) | Herbicidal effect by soil treatment, J: blackgrass (blackgrass [11]) | herbicidal effect on L: windgrass (evaluation grade 0-5) (windgrass [12]) | Herbicidal effect by soil treatment, I: wild oat (wild oat [13]) | Herbicidal effect by soil treatment, H: barnyard grass (barnyard grass [14]) | herbicidal effect on I: wild oat (evaluation grade 0-5) (wild oat [15]) | Herbicidal effect by soil treatment, L: windgrass (windgrass [16]) | herbicidal effect on H: barnyard grass (evaluation grade 0-5) (barnyard grass [17]) | herbicidal effect on barnyard grass (H) (barnyard grass [18]) | other results
1 | Cc1nn(C)c(=O)c(-c2c(-c3ccc(OC(F)(F)F)cc3)sc3c(F)cccc23)c1O [4-048] | 1 (Herbicidal rate of 5% or more and less than 20%) | 1 (Herbicidal rate of 5% or more and less than 20%) | 5 (Herbicidal rate of 90% or more (almost completely withered)) | 5 (Herbicidal rate of 90% or more (almost completely withered)) | 5 (Herbicidal rate of 90% or more (almost completely withered)) | 4 (Herbicidal rate of 70% or more and less than 90%) | 0 (Herbicidal rate of 5% or less (almost no effect)) | 0 (Herbicidal rate of 5% or less (almost no effect)) | 5 (Herbicidal rate of 90% or more (almost completely withered)) | 5 (Herbicidal rate of 90% or more (almost completely withered)) | 1 (Herbicidal rate of 5% or more and less than 20%) | 1 (Herbicidal rate of 5% or more and less than 20%) | 0 (Herbicidal rate of 5% or less (almost no effect)) | 5 (Herbicidal rate of 90% or more (almost completely withered)) | 0 (Herbicidal rate of 5% or less (almost no effect)) | 2 (Herbicidal rate of 20% or more and less than 40%) | 3 (Herbicidal rate of 40% or more and less than 70%) | 0 (Herbicidal rate of 5% or less (almost no effect)) | 5 (Herbicidal rate of 90% or more (almost completely withered)) | 5 (Herbicidal rate of 90% or more (almost completely withered)) | Herbicidal effect by soil treatment, M: velvetleaf (velvetleaf [19]): 0 (Herbicidal rate of 5% or less (almost no effect)); herbicidal effect on M: velvetleaf (evaluation grade 0-5) (velvetleaf [20]): 3 (Herbicidal rate of 40% or more and less than 70%); herbicidal effect on R: persian speedwell (evaluation grade 0-5) (persian speedwell [21]): 5 (Herbicidal rate of 90% or more (almost completely withered)); herbicidal effect on O: lambsquarters (evaluation grade 0-5) (lambsquarters [22]): 3 (Herbicidal rate of 40% or more and less than 70%); Herbicidal effect by soil treatment, N: redroot pigweed (redroot pigweed [23]): 3 (Herbicidal rate of 40% or more and less than 70%); Herbicidal effect by soil treatment, G: green foxtail (green foxtail [24]): 0 (Herbicidal rate of 5% or less (almost no effect)); herbicidal effect on G: green foxtail (evaluation grade 0-5) (green foxtail [25]): 5 (Herbicidal rate of 90% or more (almost completely withered))
2 | CCCC(=O)Oc1c(C)nn(C)c(=O)c1-c1c(-c2ccccc2F)sc2c(Cl)cccc12 [4-059] | 0 (Herbicidal rate of 5% or less (almost no effect)) | 0 (Herbicidal rate of 5% or less (almost no effect)) | 4 (Herbicidal rate of 70% or more and less than 90%) | 4 (Herbicidal rate of 70% or more and less than 90%) | 4 (Herbicidal rate of 70% or more and less than 90%) | 0 (Herbicidal rate of 5% or less (almost no effect)) | 0 (Herbicidal rate of 5% or less (almost no effect)) | 0 (Herbicidal rate of 5% or less (almost no effect)) | 3 (Herbicidal rate of 40% or more and less than 70%) | 5 (Herbicidal rate of 90% or more (almost completely withered)) | 4 (Herbicidal rate of 70% or more and less than 90%) | 0 (Herbicidal rate of 5% or less (almost no effect)) | 0 (Herbicidal rate of 5% or less (almost no effect)) | 0 (Herbicidal rate of 5% or less (almost no effect)) | 0 (Herbicidal rate of 5% or less (almost no effect)) | 0 (Herbicidal rate of 5% or less (almost no effect)) | 1 (Herbicidal rate of 5% or more and less than 20%) | 0 (Herbicidal rate of 5% or less (almost no effect)) | 0 (Herbicidal rate of 5% or less (almost no effect)) | 4 (Herbicidal rate of 70% or more and less than 90%) | Herbicidal effect by soil treatment, M: velvetleaf (velvetleaf [19]): 0 (Herbicidal rate of 5% or less (almost no effect)); herbicidal effect on M: velvetleaf (evaluation grade 0-5) (velvetleaf [20]): 3 (Herbicidal rate of 40% or more and less than 70%); herbicidal effect on R: persian speedwell (evaluation grade 0-5) (persian speedwell [21]): 4 (Herbicidal rate of 70% or more and less than 90%); herbicidal effect on O: lambsquarters (evaluation grade 0-5) (lambsquarters [22]): 2 (Herbicidal rate of 20% or more and less than 40%); Herbicidal effect by soil treatment, N: redroot pigweed (redroot pigweed [23]): 0 (Herbicidal rate of 5% or less (almost no effect)); Herbicidal effect by soil treatment, G: green foxtail (green foxtail [24]): 0 (Herbicidal rate of 5% or less (almost no effect)); herbicidal effect on G: green foxtail (evaluation grade 0-5) (green foxtail [25]): 0 (Herbicidal rate of 5% or less (almost no effect))
